pIC50: −log10 of the molar value.

In the first assay the target is T1, CaV2.2 (Homo sapiens, UniProt Q00975).
T1 construct: expressed in transfected cells; host or cells: HEK293
T1 sequence (Q00975 whole entry): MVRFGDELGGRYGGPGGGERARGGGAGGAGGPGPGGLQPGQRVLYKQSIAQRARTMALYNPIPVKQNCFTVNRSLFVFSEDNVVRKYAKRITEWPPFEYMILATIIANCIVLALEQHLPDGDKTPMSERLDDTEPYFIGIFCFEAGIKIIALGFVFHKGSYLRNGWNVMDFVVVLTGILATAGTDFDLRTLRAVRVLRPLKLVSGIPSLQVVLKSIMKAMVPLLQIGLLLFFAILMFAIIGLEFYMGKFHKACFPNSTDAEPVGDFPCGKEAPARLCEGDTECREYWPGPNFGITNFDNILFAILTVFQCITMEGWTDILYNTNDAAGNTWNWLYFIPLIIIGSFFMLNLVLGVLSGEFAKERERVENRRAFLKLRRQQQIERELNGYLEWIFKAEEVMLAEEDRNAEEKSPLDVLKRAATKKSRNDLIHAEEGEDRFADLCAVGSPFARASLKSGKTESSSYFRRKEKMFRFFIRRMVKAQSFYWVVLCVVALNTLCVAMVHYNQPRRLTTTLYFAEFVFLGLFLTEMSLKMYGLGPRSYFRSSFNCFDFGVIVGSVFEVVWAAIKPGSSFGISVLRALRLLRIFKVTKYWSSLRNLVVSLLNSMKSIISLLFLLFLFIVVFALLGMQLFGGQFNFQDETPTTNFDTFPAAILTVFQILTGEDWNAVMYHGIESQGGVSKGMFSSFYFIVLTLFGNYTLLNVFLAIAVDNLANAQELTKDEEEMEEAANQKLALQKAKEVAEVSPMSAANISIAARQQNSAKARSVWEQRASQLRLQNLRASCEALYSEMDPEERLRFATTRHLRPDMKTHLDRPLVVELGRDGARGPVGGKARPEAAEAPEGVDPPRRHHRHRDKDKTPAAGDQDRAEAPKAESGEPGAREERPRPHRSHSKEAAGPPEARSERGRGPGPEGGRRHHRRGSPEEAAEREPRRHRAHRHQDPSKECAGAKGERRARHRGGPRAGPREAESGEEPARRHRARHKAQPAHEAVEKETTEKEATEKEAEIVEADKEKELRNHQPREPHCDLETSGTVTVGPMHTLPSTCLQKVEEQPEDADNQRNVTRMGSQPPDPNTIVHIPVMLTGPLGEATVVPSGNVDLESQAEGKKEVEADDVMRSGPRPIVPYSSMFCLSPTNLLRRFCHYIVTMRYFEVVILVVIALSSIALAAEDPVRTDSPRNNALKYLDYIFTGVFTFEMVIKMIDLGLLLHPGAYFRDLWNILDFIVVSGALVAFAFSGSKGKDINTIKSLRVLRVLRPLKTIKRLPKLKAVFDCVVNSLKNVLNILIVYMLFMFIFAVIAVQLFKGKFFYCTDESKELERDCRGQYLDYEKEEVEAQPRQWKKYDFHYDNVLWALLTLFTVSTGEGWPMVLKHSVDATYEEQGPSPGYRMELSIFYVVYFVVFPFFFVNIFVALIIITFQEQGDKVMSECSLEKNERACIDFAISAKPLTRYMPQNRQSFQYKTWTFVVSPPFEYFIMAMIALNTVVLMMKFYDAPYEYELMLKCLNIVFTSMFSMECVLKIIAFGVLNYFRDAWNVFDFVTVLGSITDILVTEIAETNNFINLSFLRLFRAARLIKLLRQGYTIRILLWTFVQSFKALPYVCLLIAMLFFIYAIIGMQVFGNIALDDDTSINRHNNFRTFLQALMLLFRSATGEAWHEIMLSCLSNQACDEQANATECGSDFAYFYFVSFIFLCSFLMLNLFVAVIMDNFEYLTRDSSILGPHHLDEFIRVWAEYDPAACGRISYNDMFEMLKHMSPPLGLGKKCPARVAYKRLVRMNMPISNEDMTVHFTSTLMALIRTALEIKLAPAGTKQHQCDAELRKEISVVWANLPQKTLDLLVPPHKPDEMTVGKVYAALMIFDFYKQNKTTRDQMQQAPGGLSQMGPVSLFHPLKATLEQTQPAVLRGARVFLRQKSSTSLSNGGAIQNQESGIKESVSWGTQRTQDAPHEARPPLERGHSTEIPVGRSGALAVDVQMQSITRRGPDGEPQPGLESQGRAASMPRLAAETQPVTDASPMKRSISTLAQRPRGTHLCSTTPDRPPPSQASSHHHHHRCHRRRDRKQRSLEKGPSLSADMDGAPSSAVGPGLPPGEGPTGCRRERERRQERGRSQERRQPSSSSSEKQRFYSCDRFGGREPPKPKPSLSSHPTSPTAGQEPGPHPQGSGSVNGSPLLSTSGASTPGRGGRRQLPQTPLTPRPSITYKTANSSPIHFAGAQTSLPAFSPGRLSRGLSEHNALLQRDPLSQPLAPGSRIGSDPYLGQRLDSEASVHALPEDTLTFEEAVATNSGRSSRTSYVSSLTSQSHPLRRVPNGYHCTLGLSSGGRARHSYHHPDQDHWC
T1 sequence (P54284 whole entry partner): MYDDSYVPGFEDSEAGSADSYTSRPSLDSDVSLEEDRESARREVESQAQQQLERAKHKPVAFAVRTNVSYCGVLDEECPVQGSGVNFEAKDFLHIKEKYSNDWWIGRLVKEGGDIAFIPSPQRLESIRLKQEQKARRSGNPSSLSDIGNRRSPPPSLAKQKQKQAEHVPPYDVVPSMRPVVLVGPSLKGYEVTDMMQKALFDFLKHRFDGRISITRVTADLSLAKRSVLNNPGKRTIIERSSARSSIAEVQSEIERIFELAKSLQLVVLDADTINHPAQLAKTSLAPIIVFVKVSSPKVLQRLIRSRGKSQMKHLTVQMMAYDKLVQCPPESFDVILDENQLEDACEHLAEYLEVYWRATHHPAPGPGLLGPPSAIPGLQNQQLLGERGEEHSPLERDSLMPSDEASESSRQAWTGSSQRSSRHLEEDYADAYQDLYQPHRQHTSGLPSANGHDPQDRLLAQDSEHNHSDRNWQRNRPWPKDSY
T1 sequence (P54289 25-946 partner limits assumed): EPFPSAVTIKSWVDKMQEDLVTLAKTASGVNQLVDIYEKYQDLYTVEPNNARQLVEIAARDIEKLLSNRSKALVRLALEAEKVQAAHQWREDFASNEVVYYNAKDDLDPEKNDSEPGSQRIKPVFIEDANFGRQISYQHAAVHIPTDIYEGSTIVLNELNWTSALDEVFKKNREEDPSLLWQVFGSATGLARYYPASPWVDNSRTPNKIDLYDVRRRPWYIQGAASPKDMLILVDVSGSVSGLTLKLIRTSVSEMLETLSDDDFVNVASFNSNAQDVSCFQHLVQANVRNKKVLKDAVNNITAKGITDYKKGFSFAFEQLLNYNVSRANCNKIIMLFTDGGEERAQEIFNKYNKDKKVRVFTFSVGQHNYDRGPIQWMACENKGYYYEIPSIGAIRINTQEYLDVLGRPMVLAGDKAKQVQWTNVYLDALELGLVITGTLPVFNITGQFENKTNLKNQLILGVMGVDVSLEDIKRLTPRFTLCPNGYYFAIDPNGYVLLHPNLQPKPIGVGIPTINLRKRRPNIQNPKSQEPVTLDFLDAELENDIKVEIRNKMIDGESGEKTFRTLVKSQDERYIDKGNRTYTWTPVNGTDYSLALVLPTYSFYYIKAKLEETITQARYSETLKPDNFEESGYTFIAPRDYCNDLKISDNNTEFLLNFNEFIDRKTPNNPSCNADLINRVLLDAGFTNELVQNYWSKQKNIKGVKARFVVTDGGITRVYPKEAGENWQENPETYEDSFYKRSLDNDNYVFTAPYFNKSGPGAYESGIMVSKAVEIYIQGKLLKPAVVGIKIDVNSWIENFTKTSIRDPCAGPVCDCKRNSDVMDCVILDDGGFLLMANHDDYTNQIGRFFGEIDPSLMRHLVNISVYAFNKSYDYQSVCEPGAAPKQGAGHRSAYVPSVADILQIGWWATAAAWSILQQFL
T1 sequence (P54289 947-1103 partner limits assumed): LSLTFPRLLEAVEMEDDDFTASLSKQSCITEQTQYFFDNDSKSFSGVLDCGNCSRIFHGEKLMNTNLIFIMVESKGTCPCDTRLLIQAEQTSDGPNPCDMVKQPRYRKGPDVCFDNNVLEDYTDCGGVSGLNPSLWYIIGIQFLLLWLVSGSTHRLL
The assay can be described thus: VIPR optical membrane potential assay with electrical stimulation. Format: cell-based.
Conditions: not given
An outline of the steps: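 HEK293 cells stably expressing CaV2.2, stained with CC2-DMPE (10 μM final) and oxonol voltage-sensitive dyes, compound added with BaCl2. Membrane potential response evoked by 3-5 s electrical stimulation. Read as background-subtracted 460/580 nm emission ratio, response R=Rf/Ri, normalized to mibefradil positive and no-drug negative controls.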
With `Cc1c(C(=O)N2CCC3(CC2)OCCO3)oc2ccc(S(=O)(=O)N3CCCCC3)cc12` [compound 173], the pIC50 is 4.70 to 5.30. On the same count and under the same terms, then `Cc1c(C(=O)N(C)Cc2ccccc2)oc2ccc(S(=O)(=O)N3CC(C)CC(C)C3)cc12` (stereo not shown) [compound 89], with over 5.30.

The assay is the same for the next values; noted with them: Table 3, biological assay data; read-out: IC50.
Consider `Cc1c(C(=O)NCC2CCOCC2)[nH]c2ccc(S(=O)(=O)N3CCC(C)CC3)cc12` [compound 166], for which the pIC50 is over 4.70. Still for that read-out and setting: under `O=C(NCc1ccccc1)c1cc2cc(S(=O)(=O)N3CCCCCC3)ccc2n1S(=O)(=O)c1ccccc1` [compound 398] stands over 5.30; under `CC1CCN(C(=O)c2cc3cc(S(=O)(=O)N4CCCCCC4)ccc3o2)CC1` [compound 190], over 5.30; under `CC1CCN(S(=O)(=O)c2ccc3oc(C(=O)NCCc4ccccc4)cc3c2)CC1` [compound 97], 4.70 to 5.30. Still for that read-out and setting: under `Cc1c(C(=O)NC2CCCCC2)oc2ccc(S(=O)(=O)N3CCCCC3)cc12` [compound 459] stands 4.70 to 5.30. In the case of `CCN(CC)C(=O)c1oc2ccc(S(=O)(=O)N3CC(C)CC(C)C3)cc2c1C` (stereo not shown) [compound 423], the negative logarithm of the IC50 (pIC50) was over 5.30.

Turning to `O=C(NCc1ccccc1)c1cc2cc(S(=O)(=O)N3CCCCCC3)ccc2o1` [compound 34], the negative logarithm of the IC50 (pIC50) is over 5.30.

Regarding `CC1CCN(S(=O)(=O)c2ccc3[nH]c(C(=O)NC4CCCCC4)cc3c2)CC1` [compound 448], the pIC50 was 4.70 to 5.30.

`O=C(NCCC1CCOCC1)c1cc2cc(S(=O)(=O)N3CCCCCC3)ccc2[nH]1` [compound 335]: the pIC50 is over 5.30. Same read-out and setting: under `CCNC(=O)c1cc2cc(S(=O)(=O)N3CC(C)CC(C)C3)ccc2o1` (stereo not shown) [compound 469] stands over 5.30; under `Cc1c(C(=O)NC2CCCC2)oc2ccc(S(=O)(=O)N3CCOCC3)cc12` [compound 361], over 4.70. Still for that read-out and setting: under `CC1CC(C)CN(S(=O)(=O)c2ccc3oc(C(=O)N4CCCCC4C)cc3c2)C1` (stereo not shown) [compound 333] stands 4.70 to 5.30; under `CC1CC(C)CN(S(=O)(=O)c2ccc3[nH]c(C(=O)NCc4ccccc4)cc3c2)C1` (stereo not shown) [compound 357], over 5.30; under `COc1ccc(S(=O)(=O)n2c(C(=O)N3CCCCC3)cc3cc(S(=O)(=O)N4CC(C)CC(C)C4)ccc32)cc1` (stereo not shown) [compound 292], over 5.30. On the same count and under the same terms, then `CNC(=O)c1[nH]c2ccc(S(=O)(=O)N3CCCCCC3)cc2c1C` [compound 442], with 4.70 to 5.30.

On to `CC1CCN(S(=O)(=O)c2ccc3[nH]c(C(=O)N4CC(C)CC(C)C4)cc3c2)CC1` (stereo not shown) [compound 319], for which the pIC50 was 4.70 to 5.30. On the same count and under the same terms, under `Cc1c(C(=O)N2CCCCC2)oc2ccc(S(=O)(=O)N3CCC(C)CC3)cc12` [compound 460] stands 4.70 to 5.30; under `Cc1c(C(=O)NC2CCCC2)oc2ccc(S(=O)(=O)N3CCC(C)CC3)cc12` [compound 148], over 5.30. Same read-out and setting: then `CC1CC(C)CN(S(=O)(=O)c2ccc3[nH]c(C(=O)NC4CC4)cc3c2)C1` (stereo not shown) [compound 209], with over 5.30.

Take `Cc1c(C(=O)N2CCCCC2)[nH]c2ccc(S(=O)(=O)N3CCCCCC3)cc12` [compound 69]: the pIC50 is 4.70 to 5.30. On the same count and under the same terms, then `O=C(NCc1ccccc1)c1cc2cc(S(=O)(=O)N3CCCCCC3)ccc2[nH]1` [compound 382], with over 5.30; and `O=C(NC1CC1)c1cc2cc(N(CC3CC3)S(=O)(=O)c3ccccc3)ccc2[nH]1` [compound 105], with 4.70 to 5.30. Still for that read-out and setting: then `CC1CC(C)CN(S(=O)(=O)c2ccc3[nH]c(C(=O)NC(C)C)cc3c2)C1` (stereo not shown) [compound 274], with over 5.30; and `CC1CC(C)CN(C(=O)c2cc3cc(S(=O)(=O)N4CC(C)CC(C)C4)ccc3o2)C1` (stereo not shown) [compound 29], with over 5.30; and `CC(C)NC(=O)c1cc2cc(S(=O)(=O)N3CCCCCC3)ccc2o1` [compound 218], with 4.70 to 5.30. Same read-out and setting: then `CC1CCN(S(=O)(=O)c2ccc3[nH]c(C(=O)NCCC4CCOCC4)cc3c2)CC1` [compound 8], with over 5.30. For `O=C(c1cc2cc(S(=O)(=O)N3CCCCCC3)ccc2o1)N1CCCC1` [compound 222], the pIC50 was 4.70 to 5.30. For the compound `Cc1c(C(=O)N2CCCCC2C)[nH]c2ccc(S(=O)(=O)N3CC(C)CC(C)C3)cc12` (stereo not shown) [compound 297], the pIC50 was over 5.30. In the case of `CCN(CC)C(=O)c1oc2ccc(S(=O)(=O)N3CCC(C)CC3)cc2c1C` [compound 15], the negative-log IC50 (pIC50) is 4.70 to 5.30. The same measure, in the same setting: then `CC1CC(C)CN(C(=O)c2cc3cc(S(=O)(=O)N4CCCCCC4)ccc3[nH]2)C1` (stereo not shown) [compound 17], with 4.70 to 5.30; and `CCCCN(C)C(=O)c1cc2cc(S(=O)(=O)N3CC(C)CC(C)C3)ccc2o1` (stereo not shown) [compound 229], with over 5.30.

On to `CCN(CC)S(=O)(=O)c1ccc2oc(C(=O)NCCc3ccccc3)c(C)c2c1` [compound 291], for which the negative-log IC50 (pIC50) was 4.70 to 5.30. On the same count and under the same terms, then `CC1CC(C)CN(S(=O)(=O)c2ccc3oc(C(=O)N4CCCCCC4)cc3c2)C1` (stereo not shown) [compound 240], with over 5.30. Still for that read-out and setting: under `Cc1c(C(=O)N2CCCCC2)oc2ccc(S(=O)(=O)N3CCOCC3)cc12` [compound 65] stands over 4.70; under `CS(=O)(=O)Nc1ccc2[nH]c(C(=O)NC3CC3)cc2c1` [compound 286], over 4.70. Still for that read-out and setting: then `CC1CC(C)CN(S(=O)(=O)c2ccc3oc(C(=O)N4CCN(C)CC4)cc3c2)C1` (stereo not shown) [compound 82], with 4.70 to 5.30. As for `CCNC(=O)c1cc2cc(S(=O)(=O)N3CCCCCC3)ccc2o1` [compound 265], the pIC50 is 4.70 to 5.30. With `Cc1c(C(=O)N2CCCCC2C)oc2ccc(S(=O)(=O)N3CCCCC3)cc12` (stereo not shown) [compound 59], the negative-log IC50 (pIC50) was 4.70 to 5.30.

For the compound `Cc1c(C(=O)N(C(C)C)C(C)C)oc2ccc(S(=O)(=O)N3CCC(C)CC3)cc12` [compound 443], the negative logarithm of the IC50 (pIC50) was 4.70 to 5.30. Same read-out and setting: then `Cc1c(C(=O)N2CC(C)CC(C)C2)[nH]c2ccc(S(=O)(=O)N3CCC(C)CC3)cc12` (stereo not shown) [compound 127], with 4.70 to 5.30; and `Cc1c(C(=O)NCc2ccccc2)oc2ccc(S(=O)(=O)N3CCC4(CC3)OCCO4)cc12` [compound 118], with over 4.70. For `CCN(CC)S(=O)(=O)c1ccc2oc(C(=O)NCCCc3ccccc3)c(C)c2c1` [compound 318], the pIC50 is 4.70 to 5.30.

Take `CC(C)N(C(=O)c1cc2cc(S(=O)(=O)N3CCCCCC3)ccc2o1)C(C)C` [compound 67]: the pIC50 was over 5.30. The same measure, in the same setting: then `O=C(NCC1CCOCC1)c1cc2cc(S(=O)(=O)N3CCCCCC3)ccc2o1` [compound 363], with 4.70 to 5.30. The same measure, in the same setting: then `CCN(CC)C(=O)c1oc2ccc(S(=O)(=O)N3CCCCC3)cc2c1C` [compound 202], with 4.70 to 5.30; and `Cc1ccc(CNC(=O)c2oc3ccc(S(=O)(=O)N4CCCC4)cc3c2C)cc1` [compound 86], with 4.70 to 5.30.

For `CC1CC(C)CN(S(=O)(=O)c2ccc3c(c2)cc(C(=O)N2CCCCC2)n3C)C1` (stereo not shown) [compound 391], the pIC50 is over 5.30. Regarding `CNC(=O)c1oc2ccc(S(=O)(=O)N3CCC(C)CC3)cc2c1C` [compound 10], the pIC50 is 4.70 to 5.30. The same measure, in the same setting: under `Cc1c(C(=O)NC(C)C)oc2ccc(S(=O)(=O)N3CCC(C)CC3)cc12` [compound 411] stands over 5.30.

Turning to `CC1CC(C)CN(S(=O)(=O)c2ccc3oc(C(=O)NC4CCCCC4)cc3c2)C1` (stereo not shown) [compound 455], the negative-log IC50 (pIC50) is over 5.30. On the same count and under the same terms, under `CNC(=O)c1cc2cc(S(=O)(=O)N3CC(C)CC(C)C3)ccc2[nH]1` (stereo not shown) [compound 37] stands over 5.30; under `CC1CCN(S(=O)(=O)c2ccc3[nH]c(C(=O)NCCCc4ccccc4)cc3c2)CC1` [compound 98], over 5.30. On the same count and under the same terms, then `CC1CCN(S(=O)(=O)c2ccc3oc(C(=O)N4CC(C)CC(C)C4)cc3c2)CC1` (stereo not shown) [compound 293], with over 5.30. Same read-out and setting: under `CCN(CC)C(=O)c1oc2ccc(S(=O)(=O)N3CCOCC3)cc2c1C` [compound 162] stands over 4.70; under `Cc1c(C(=O)N2CCCC(C)C2)oc2ccc(S(=O)(=O)N3CCCCCC3)cc12` (stereo not shown) [compound 102], over 5.30; under `Cc1c(C(=O)N2CCCCC2C)oc2ccc(S(=O)(=O)N3CCC(C)CC3)cc12` (stereo not shown) [compound 42], over 5.30. With `CC1CC(C)CN(S(=O)(=O)c2ccc3[nH]c(C(=O)N4CCCC4)cc3c2)C1` (stereo not shown) [compound 143], the negative-log IC50 (pIC50) is 4.70 to 5.30. The same measure, in the same setting: under `Cc1c(C(=O)NC2CC2)oc2ccc(S(=O)(=O)NCc3ccncc3)cc12` [compound 302] stands over 4.70; under `CC1CCN(S(=O)(=O)c2ccc3[nH]c(C(=O)NC4CCCC4)cc3c2)CC1` [compound 412], over 5.30. For the compound `Cc1c(C(=O)N2CCCCC2)oc2ccc(S(=O)(=O)N3CCCCCC3)cc12` [compound 468], the pIC50 is 4.70 to 5.30. Take `CNC(=O)c1[nH]c2ccc(S(=O)(=O)N3CCC(C)CC3)cc2c1C` [compound 30]: the pIC50 was 4.70 to 5.30. In the case of `CC1CCN(S(=O)(=O)c2ccc3oc(C(=O)NC(C)C)cc3c2)CC1` [compound 234], the negative-log IC50 (pIC50) is over 5.30.

In the case of `CCNC(=O)c1oc2ccc(S(=O)(=O)N3CCCC(C)C3)cc2c1C` (stereo not shown) [compound 310], the pIC50 is 4.70 to 5.30. On the same count and under the same terms, under `Cc1c(C(=O)N2CCCCCC2)oc2ccc(S(=O)(=O)N3CCCCCC3)cc12` [compound 45] stands over 5.30. Still for that read-out and setting: under `Cc1c(C(=O)NC2CCCCC2C)oc2ccc(S(=O)(=O)N3CCOCC3)cc12` (stereo not shown) [compound 123] stands 4.70 to 5.30; under `Cc1c(C(=O)NCCc2ccccc2)oc2ccc(S(=O)(=O)N3CCCCCC3)cc12` [compound 201], over 5.30. On the same count and under the same terms, under `Cc1c(C(=O)NCCC2CCOCC2)oc2ccc(S(=O)(=O)N3CCCC(C)C3)cc12` (stereo not shown) [compound 467] stands over 5.30; under `Cc1c(C(=O)NC2CCCC2)oc2ccc(S(=O)(=O)N3CC(C)CC(C)C3)cc12` (stereo not shown) [compound 247], over 5.30.

Turning to `CCNC(=O)c1oc2ccc(S(=O)(=O)N3CC(C)CC(C)C3)cc2c1C` (stereo not shown) [compound 212], the pIC50 was over 5.30. On the same count and under the same terms, under `CCN(CC)S(=O)(=O)c1ccc2oc(C(=O)NCc3ccc(F)cc3)c(C)c2c1` [compound 337] stands over 5.30. `Cc1c(C(=O)NC(C)C2=CCCCC2)oc2ccc(S(=O)(=O)N3CCCCC3)cc12` (stereo not shown) [compound 57]: the pIC50 is 4.70 to 5.30.

A word on the pIC50: it is the IC50 on a negative log10 scale, so that one unit is a factor of ten.

The record behind these values is patent US8211935B2, “Heterocyclic derivatives for modulation of calcium channels” (Vertex Pharmaceuticals Incorporated, priority 2004, dated 2012).
